The source of these data is PMC10591454 (European journal of medicinal chemistry, 2021).

Converted amounts (≈) assume the structure as drawn. Like-named read-outs stand apart in the source and are kept apart here.

In series [1] the test system is HCV genotype 1b. As to conditions: read-out: GT1b EC50; HCV NS5A inhibitors; cited from earlier work.
In series [2] the test system is HCV genotype 1a. As to conditions: read-out: GT1a EC50; HCV NS5A inhibitors; cited from earlier work.
For series [3], the system named is CYP3A4. To be noted: cited from earlier work.
Series [4] deals with HBV. Briefly: HBV replication inhibition assay. It counts as cell-based, HBV genotype D. To be noted: for anti-HBV activity in words: initial screening, SAR discussion; for activity at 10 µM: Hepatitis B virus, HepDES19, 72 h.
The test system of series [5] is HBV DNA, HBsAg and pregenomic RNA. As to conditions: after 28 days of treatment with GLS4; cited from earlier work.
Series [6] has as its system HBV. To be noted: effective concentration 90%; cited from earlier work.

Consider `COC(=O)N[C@H](C(=O)N1CC2(CC2)C[C@H]1c1nc(-c2ccc3c(c2)C(F)(F)c2cc(-c4ccc5[nH]c([C@@H]6[C@H]7CC[C@H](C7)N6C(=O)[C@@H](NC(=O)OC)C(C)C)nc5c4)ccc2-3)c[nH]1)C(C)C` [Ledipasvir], for which the EC50 (as a rule, the concentration needed to bring the measured effect to its halfway point) in series [1] is 0.004 nM; in series [2], 0.031 nM.
On to `C[C@@H](O[C@H]1OCCN(Cc2n[nH]c(=O)[nH]2)[C@H]1c1ccc(F)cc1)c1cc(C(F)(F)F)cc(C(F)(F)F)c1` [Aprepitant], for which, in series [3], the “CYP3A4 inhibition in words” value was “moderate CYP3A4 inhibitor”.
As for `CCOC(=O)C1=C(CN2CCC3(CCNC3)C2=O)NC(c2nccs2)=NC1c1ccc(F)cc1Br` (stereo not drawn) [Compound 5b, ethyl 4-(2-bromo-4-fluorophenyl)-6-((1-oxo-2,7-diazaspiro[4.4]nonan-2-yl)methyl)-2-(thiazol-2-yl)-1,4-dihydropyrimidine-5-carboxylate], in series [4], the “anti-HBV activity in words” value was “inactive”.
Take `CCOC(=O)C1=C(CN2CCC3(CCNC3)CC2)NC(c2nccs2)=NC1c1ccc(F)cc1Br` (stereo not drawn) [Compound 5e, ethyl 6-((2,8-diazaspiro[4.5]decan-8-yl)methyl)-4-(2-bromo-4-fluorophenyl)-2-(thiazol-2-yl)-1,4-dihydropyrimidine-5-carboxylate]: the “anti-HBV activity in words” value in series [4] is “inactive”.
For `CCOC(=O)C1=C(CN2CCC3(CCNC3)C2)NC(c2nccs2)=NC1c1ccc(F)cc1Br` (stereo not drawn) [Compound 5i, ethyl 6-((2,7-diazaspiro[4.4]nonan-2-yl)methyl)-4-(2-bromo-4-fluorophenyl)-2-(thiazol-2-yl)-1,4-dihydropyrimidine-5-carboxylate], in series [4], the “anti-HBV activity in words” value is “inactive or less potent”.
With `C[C@@H](OC[C@@]1(c2ccccc2)CC[C@]2(CCC(=O)N2)CN1)c1cc(C(F)(F)F)cc(C(F)(F)F)c1` [Rolapitant], in series [3], the “CYP3A4 inhibition in words” value is “no inhibitory effect”.
For `CCOC(=O)C1=C(CN2CC3(CCNC3)CC2=O)NC(c2nccs2)=NC1c1ccc(F)cc1Br` (stereo not drawn) [Compound 5c, ethyl 4-(2-bromo-4-fluorophenyl)-6-((3-oxo-2,7-diazaspiro[4.4]nonan-2-yl)methyl)-2-(thiazol-2-yl)-1,4-dihydropyrimidine-5-carboxylate], the “anti-HBV activity in words” value in series [4] was “inactive”.
Turning to `CCOC(=O)C1=C(CN2CCOCC2)NC(c2nccs2)=N[C@H]1c1ccc(F)cc1Br` [GLS4, Ethyl4-(2-bromo-4-fluorophenyl)-6-(morpholinomethyl)-2-(thiazol-2-yl)-1,4-dihydropyrimidine-5-carboxylate], the “HBV DNA, HBsAg and pregenomic RNA in patients” value in series [5] was “strong downward trend”. The EC90 (in general, the concentration needed for an effect of 90%) in series [6] was 0.0557 µg/mL (≈ 0.109 µM).
`Nc1ccn([C@@H]2CS[C@H](CO)O2)c(=O)n1` [Compound 3TC, lamivudine]: the activity at 10 µM in series [4] (read-out: Minus DNA (%) (10μM)) worked out at 54.6%; in series [4] (read-out: Plus DNA (%) (10μM)), 16.2%.
